From ChEMBL document CHEMBL5465560, “Selectivity Literature for EUbOPEN Chemogenomic Library” (2024) come the findings set out here.

The target of assay [1] is Calcium/calmodulin-dependent protein kinase kinase 1 (Homo sapiens) (UniProt Q8N5S9). Put plainly: Selectivity interaction (KinomeScan (DiscoverX)) EUB0001049a CAMKK1. The conditions noted are these: at 1 µM.
Assay [2] has as its system Proto-oncogene tyrosine-protein kinase receptor Ret (Homo sapiens), P07949 [M918T]. Nature of the assay: (§1) Selectivity interaction (KinomeScan (DiscoverX)) EUB0000655a RET. The conditions noted are these: at 10 µM.
Assay [3] relates to Proto-oncogene tyrosine-protein kinase receptor Ret (Homo sapiens), P07949 [V804L]. The description is as §1. The conditions noted are these: at 10 µM.
The target of assay [4] is Proto-oncogene tyrosine-protein kinase receptor Ret (Homo sapiens, UniProt P07949). The description is as §1. Conditions: at 10 µM.
The subject of assay [5] is Proto-oncogene tyrosine-protein kinase receptor Ret (Homo sapiens), P07949 [V804M]. The description is as §1. Conditions: at 10 µM.
Assay [6] addresses T1, Phosphorylase b kinase gamma catalytic chain, liver/testis isoform (Homo sapiens) (UniProt P15735).
T1 sequence (whole entry): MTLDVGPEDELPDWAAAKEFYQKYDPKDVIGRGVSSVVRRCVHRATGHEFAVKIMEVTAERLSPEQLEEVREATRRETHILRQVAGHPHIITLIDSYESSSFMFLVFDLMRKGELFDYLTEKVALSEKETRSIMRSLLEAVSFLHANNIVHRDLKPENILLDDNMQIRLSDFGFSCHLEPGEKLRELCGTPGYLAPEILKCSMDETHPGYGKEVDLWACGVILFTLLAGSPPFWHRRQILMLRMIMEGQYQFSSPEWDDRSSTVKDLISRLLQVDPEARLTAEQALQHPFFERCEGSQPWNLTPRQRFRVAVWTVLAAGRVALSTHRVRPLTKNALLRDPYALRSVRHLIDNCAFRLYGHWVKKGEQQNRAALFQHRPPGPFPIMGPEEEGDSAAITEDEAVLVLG
Put plainly: Selectivity interaction (Kinase screening (Nanosyn)) EUB0000604a PHKG2.

Assay [7] addresses Tyrosine-protein kinase BTK (Homo sapiens, UniProt Q06187). Nature of the assay: Selectivity interaction (Kinase screening (Nanosyn)) EUB0000604a BTK.
In assay [8] the test system is Hepatocyte growth factor receptor (Homo sapiens), P08581 [M1250T]. Put plainly: (§2) Selectivity interaction (KinomeScan (DiscoverX)) EUB0000045b MET.
Assay [9] deals with Hepatocyte growth factor receptor (Homo sapiens, UniProt P08581). The assay is described as §2.
Assay [10] concerns Hepatocyte growth factor receptor (Homo sapiens), P08581 [Y1235D]. The assay is described as §2.
Assay [11] addresses T2, Serine/threonine-protein kinase Sgk3 (Homo sapiens) (UniProt Q96BR1).
T2 sequence (whole entry): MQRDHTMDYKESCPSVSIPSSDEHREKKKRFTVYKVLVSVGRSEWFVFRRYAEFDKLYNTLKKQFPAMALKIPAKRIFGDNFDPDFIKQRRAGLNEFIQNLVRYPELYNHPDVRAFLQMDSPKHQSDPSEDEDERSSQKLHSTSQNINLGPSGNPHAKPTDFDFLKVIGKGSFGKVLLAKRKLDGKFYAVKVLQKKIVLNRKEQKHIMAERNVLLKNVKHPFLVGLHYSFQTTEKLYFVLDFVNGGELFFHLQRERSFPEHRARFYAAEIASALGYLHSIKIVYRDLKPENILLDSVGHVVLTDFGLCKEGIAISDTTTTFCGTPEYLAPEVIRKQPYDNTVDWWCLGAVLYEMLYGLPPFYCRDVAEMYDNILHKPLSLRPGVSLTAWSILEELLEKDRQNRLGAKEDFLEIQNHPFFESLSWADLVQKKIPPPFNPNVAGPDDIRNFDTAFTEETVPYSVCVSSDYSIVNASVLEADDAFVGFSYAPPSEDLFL
Put plainly: Selectivity interaction (Kinase panel (Z-LYTE Assay)) EUB0001632a SGK3. The conditions noted are these: at 10 µM.

Assay [12] concerns the target Homeodomain-interacting protein kinase 1 (Homo sapiens, UniProt Q86Z02). Put plainly: Selectivity interaction (SelectScreen profiling (Invitrogen)) EUB0000607a HIPK1. Conditions: at 2 µM.
Assay [13] has as its target Bone morphogenetic protein receptor type-1A (Homo sapiens, UniProt P36894). Nature of the assay: Selectivity interaction (KinomeScan (DiscoverX)) EUB0000607a BMPR1A. The conditions noted are these: at 10 µM.
Assay [14] deals with Calcium/calmodulin-dependent protein kinase type II subunit beta (Homo sapiens) (UniProt Q13554). Nature of the assay: Selectivity interaction (ActivX KiNativ screen (kinase selectivity in THP-1 cell lysates)) EUB0000639a CAMK2B. It is filed as subcellular. Conditions: lysate, at 0.04 µM.
Assay [15] concerns the target Mitogen-activated protein kinase kinase kinase 14 (Homo sapiens) (UniProt Q99558). Put plainly: Selectivity interaction (Kinase panel (Invitrogen)) EUB0000639a MAP3K14. Conditions: at 200 nM.
In assay [16] the target is Serine/threonine-protein kinase 10 (Homo sapiens) (UniProt O94804). Conditions: at 10 µM.
Assay [17] has as its target T3, Dual specificity mitogen-activated protein kinase kinase 6 (Homo sapiens) (UniProt P52564).
T3 sequence (whole entry): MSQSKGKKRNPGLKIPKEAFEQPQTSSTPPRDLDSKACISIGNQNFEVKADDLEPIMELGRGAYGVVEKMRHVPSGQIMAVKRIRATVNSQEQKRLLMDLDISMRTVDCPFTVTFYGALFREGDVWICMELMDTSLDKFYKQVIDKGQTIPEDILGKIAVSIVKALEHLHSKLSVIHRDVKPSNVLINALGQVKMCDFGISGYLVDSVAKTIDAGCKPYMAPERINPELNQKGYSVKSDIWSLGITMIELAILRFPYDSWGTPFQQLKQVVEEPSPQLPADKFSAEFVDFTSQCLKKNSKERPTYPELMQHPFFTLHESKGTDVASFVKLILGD
Nature of the assay: Selectivity interaction (ActivX KiNativ screen (ex vivo kinase selectivity in human PBMCs)) EUB0001619a MAP2K6. It is filed as cell-based. Conditions: PBMC, at 1 µM.

Sequence of Hepatocyte growth factor receptor (P08581 whole entry): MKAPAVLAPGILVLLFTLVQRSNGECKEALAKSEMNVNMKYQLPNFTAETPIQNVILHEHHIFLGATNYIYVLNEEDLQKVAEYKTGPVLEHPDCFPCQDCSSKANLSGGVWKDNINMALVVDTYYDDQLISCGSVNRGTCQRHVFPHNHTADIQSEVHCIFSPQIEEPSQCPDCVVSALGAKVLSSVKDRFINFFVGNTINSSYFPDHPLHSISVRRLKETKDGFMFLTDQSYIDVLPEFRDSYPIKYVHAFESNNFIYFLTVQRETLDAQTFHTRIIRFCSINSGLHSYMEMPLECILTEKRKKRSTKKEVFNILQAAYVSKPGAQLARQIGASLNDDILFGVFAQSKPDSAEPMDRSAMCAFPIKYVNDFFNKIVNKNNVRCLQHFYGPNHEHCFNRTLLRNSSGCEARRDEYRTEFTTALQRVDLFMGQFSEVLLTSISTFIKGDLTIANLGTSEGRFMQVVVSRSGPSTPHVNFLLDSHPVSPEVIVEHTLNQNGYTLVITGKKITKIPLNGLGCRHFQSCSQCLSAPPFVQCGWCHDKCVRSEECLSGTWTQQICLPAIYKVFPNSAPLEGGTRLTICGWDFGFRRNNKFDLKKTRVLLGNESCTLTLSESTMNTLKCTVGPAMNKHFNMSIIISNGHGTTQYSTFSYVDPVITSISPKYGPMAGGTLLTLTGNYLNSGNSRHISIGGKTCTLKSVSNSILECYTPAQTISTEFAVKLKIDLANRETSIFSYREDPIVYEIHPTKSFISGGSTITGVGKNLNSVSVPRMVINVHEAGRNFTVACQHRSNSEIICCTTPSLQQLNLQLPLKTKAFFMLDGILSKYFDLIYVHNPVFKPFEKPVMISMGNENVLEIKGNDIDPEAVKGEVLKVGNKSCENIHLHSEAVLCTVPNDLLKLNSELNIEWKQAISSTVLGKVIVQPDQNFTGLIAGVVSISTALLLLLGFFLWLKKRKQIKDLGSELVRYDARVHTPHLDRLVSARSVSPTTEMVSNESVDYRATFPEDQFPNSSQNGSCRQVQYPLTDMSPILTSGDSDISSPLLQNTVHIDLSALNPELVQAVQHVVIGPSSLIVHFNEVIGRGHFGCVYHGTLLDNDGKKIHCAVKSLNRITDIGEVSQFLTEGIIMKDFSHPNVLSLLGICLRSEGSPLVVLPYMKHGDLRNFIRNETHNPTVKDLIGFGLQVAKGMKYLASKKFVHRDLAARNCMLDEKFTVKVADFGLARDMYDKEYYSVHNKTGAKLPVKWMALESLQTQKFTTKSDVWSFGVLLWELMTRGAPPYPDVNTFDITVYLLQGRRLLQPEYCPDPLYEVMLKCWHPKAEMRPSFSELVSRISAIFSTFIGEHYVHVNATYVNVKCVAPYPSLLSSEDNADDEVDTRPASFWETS
Sequence of Hepatocyte growth factor receptor (Homo sapiens), P08581 [M1250T] (P08581 whole entry M1250T): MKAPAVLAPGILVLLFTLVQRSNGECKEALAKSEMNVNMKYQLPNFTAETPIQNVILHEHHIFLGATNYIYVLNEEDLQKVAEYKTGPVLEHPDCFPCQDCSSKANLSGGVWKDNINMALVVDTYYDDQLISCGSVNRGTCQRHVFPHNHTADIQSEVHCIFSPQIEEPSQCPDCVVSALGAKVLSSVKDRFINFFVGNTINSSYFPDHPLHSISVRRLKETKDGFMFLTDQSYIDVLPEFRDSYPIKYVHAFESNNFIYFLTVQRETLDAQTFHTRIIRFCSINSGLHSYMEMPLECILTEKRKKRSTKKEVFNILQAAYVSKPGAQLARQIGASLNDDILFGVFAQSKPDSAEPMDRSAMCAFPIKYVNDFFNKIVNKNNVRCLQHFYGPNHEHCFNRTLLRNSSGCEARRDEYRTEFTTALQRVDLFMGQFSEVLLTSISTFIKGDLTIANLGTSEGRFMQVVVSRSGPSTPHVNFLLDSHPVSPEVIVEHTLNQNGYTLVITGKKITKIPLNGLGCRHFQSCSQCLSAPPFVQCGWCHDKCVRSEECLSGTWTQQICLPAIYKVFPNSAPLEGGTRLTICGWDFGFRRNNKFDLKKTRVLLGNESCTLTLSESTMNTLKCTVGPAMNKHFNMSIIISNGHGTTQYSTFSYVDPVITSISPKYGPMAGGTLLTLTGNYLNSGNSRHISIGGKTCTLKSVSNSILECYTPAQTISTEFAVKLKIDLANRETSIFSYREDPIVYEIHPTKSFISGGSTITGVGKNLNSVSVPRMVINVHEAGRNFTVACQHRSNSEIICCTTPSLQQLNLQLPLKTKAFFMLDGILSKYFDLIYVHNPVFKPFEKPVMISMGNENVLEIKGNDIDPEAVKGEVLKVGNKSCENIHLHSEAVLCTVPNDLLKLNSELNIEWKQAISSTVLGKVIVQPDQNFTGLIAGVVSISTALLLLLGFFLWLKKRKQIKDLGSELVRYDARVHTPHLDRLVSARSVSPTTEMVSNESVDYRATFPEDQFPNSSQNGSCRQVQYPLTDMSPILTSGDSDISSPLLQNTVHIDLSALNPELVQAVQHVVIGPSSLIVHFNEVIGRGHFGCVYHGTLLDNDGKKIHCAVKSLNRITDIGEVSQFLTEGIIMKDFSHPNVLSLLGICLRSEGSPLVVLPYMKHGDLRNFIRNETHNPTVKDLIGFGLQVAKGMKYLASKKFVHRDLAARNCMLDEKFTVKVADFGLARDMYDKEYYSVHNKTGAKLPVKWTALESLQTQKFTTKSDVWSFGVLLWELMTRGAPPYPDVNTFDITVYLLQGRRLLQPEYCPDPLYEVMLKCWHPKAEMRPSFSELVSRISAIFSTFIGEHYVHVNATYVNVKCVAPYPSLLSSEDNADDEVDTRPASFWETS
Sequence of Hepatocyte growth factor receptor (Homo sapiens), P08581 [Y1235D] (P08581 whole entry Y1235D): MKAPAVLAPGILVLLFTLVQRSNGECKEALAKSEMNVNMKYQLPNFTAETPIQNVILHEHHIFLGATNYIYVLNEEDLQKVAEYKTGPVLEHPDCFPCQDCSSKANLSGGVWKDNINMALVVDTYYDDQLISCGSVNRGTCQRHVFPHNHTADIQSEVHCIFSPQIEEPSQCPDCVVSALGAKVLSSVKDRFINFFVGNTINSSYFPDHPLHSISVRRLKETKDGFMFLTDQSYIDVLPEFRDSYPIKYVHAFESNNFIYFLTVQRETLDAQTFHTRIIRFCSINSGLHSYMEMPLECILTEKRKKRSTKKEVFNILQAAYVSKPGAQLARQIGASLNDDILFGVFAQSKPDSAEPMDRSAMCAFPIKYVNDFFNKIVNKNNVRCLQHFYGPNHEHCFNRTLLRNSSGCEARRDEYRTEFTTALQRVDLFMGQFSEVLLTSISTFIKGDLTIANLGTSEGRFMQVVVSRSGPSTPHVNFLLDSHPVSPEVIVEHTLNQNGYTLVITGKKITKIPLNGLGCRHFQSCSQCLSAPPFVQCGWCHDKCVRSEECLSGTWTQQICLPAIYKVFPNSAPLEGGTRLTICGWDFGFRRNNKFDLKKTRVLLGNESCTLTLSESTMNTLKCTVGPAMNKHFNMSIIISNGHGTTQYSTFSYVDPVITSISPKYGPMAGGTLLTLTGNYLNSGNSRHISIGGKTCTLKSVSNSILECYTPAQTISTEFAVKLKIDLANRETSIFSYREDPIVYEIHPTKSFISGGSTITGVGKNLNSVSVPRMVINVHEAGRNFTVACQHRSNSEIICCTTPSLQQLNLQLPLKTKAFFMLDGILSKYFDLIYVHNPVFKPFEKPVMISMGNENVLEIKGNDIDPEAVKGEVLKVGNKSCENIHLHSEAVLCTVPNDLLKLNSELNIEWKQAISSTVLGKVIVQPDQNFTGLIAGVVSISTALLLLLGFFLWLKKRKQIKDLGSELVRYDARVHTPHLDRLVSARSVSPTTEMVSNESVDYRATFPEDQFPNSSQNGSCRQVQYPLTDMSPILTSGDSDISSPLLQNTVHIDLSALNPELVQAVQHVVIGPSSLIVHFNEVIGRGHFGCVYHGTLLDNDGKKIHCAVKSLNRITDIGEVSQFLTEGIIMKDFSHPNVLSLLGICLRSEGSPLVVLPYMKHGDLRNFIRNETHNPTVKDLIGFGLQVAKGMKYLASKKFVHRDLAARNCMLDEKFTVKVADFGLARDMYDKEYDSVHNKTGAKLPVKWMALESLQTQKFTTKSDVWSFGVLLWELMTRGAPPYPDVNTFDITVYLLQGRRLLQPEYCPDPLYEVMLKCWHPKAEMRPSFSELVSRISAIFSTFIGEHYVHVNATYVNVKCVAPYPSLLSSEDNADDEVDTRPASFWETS
Sequence of Calcium/calmodulin-dependent protein kinase kinase 1 (Homo sapiens) (Q8N5S9 whole entry, looked up): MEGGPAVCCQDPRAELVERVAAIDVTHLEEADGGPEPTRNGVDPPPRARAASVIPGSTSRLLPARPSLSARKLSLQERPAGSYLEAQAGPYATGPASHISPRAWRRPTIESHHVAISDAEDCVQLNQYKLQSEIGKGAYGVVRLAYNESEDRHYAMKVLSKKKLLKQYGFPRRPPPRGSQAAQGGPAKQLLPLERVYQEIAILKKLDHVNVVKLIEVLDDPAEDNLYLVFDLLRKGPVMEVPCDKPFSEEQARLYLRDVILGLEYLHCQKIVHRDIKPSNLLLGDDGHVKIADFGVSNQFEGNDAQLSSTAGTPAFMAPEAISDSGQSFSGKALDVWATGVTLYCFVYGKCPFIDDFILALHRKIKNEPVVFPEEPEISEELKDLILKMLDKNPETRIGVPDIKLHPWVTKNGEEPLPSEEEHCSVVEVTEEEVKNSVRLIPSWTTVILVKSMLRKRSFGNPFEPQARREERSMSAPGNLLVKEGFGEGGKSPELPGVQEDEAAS

In the case of `COc1cc(Nc2nc(C)cc(-c3cnn4nc(OC)ccc34)n2)cc(C(F)(F)F)c1`, the % of control in assay [1] came to 95%.

Turning to `CN(C)CCOc1ccc(-c2nc(-c3ccncc3)c(-c3ccc4c(c3)CC/C4=N\O)[nH]2)cc1`, the % of control was 88% in assay [2], 100% in assay [3], 100% in [4] and 92% in assay [5].

As to `Cc1cnc(Nc2ccc(F)cc2Cl)nc1-c1c[nH]c(C(=O)N[C@H](CO)c2cccc(Cl)c2)c1`, the % of inhibition is 4% in assay [6] and 5% in assay [7].

For `C=CC(=O)Nc1cc(-n2c(=O)ccc3cnc4ccc(-c5ccc(NS(C)(=O)=O)cc5)cc4c32)ccc1C`, the % of control stood at 80% in assay [8] (at 1 µM); 90% in assay [8] (at 10 µM); 100% in assay [9] (at 1 µM); 64% in [9] (at 10 µM); 95% in assay [10] (at 1 µM); 100% in [10] (at 10 µM).

In assay [11], `Cn1cc(-n2cnc3c(NCc4nc5cc(Cl)c(Cl)cc5[nH]4)nc(N4CCOCC4)nc32)cn1` gave a % of control of 0.168%.

With `CNC(=O)Nc1ccc(-c2nc(N3CC4CCC(C3)O4)c3cnn(C4CCC5(CC4)OCCO5)c3n2)cc1`, the % of inhibition in assay [12] amounted to 1%. In assay [13], this molecule yielded a % of control of 100%.

As for `CC[C@@H]1[C@H](F)C(=O)N[C@@H]1COc1nccc2cc(C(N)=O)c(OC)cc12` [ZIMLOVISERTIB], the results for the % of inhibition in [14] and in assay [15] were 12.8% and -0.0527%, respectively.

Consider `COCC(=O)NC/C=C/c1ccc2ncnc(Nc3ccc(Oc4ccc(C)nc4)c(C)c3)c2c1` [CP-724714], for which, in assay [16], the % of control came to 4.2%.

Take `N#Cc1cccc(-c2c[nH]c3ncnc(N4CCOCC4)c23)c1`: the % of inhibition in assay [17] is 9%.
